Measurements from PMC6100582 (Molecules : A Journal of Synthetic Chemistry and Natural …, 2018).
≈ marks a conversion by molar mass, not a printed value. Where two headings read alike, the source gives them in different places.

Columns and labels:
[1] = system: DND-41 (acute lymphoblastic leukemia); assay: Antiproliferative screening (cytostatic activity); assay type: cell-based, human; conditions: 72 h, IncuCyte imaging, read-out: IC50 DND-41
Protocol: Cytostatic activity was evaluated in vitro on nine different types of human tumor cell lines: Capan-1, Hap1, HCT-116, and NCI-H460, as well as hematological tumors such as DND-41, HL-60, K-562, MM.1S and Z-138 as described previously. All human tumor cell lines were acquired from the American Type Culture Collection (ATCC, Manassas, VA, USA), except for the DND-41 cell line which was purchased from the Deutsche Sammlung von Mikroorganismen und Zellkulturen (DSMZ Leibniz-Institut, Braunschweig, Germany) and the Hap1 cell line which was purchased from Horizon Discovery (Waterbeach, UK). Capan-1, Hap1, HL-60, K-562, Z-138, MM.1S and DND-41 were cultured in Iscove′s Modified Dulbecco′s Medium (IMDM, Gibco Life Technologies, Gaithersburg, MD, USA), HCT-116 were grown in McCoy′s 5A Medium (Gibco Life Technologies) and NCI-H460 were cultured in RPMI (Gibco Life Technologies). All media were supplemented with 10% FBS (HyClone, GE Healthcare Life Sciences, USA). Adherent cell lines HCT-116, Hap1, NCI-H460, and Capan-1 cells were seeded at a density between 400 and 1250 cells per well, in 384-well, black-walled, clear-bottomed tissue culture plates (Greiner Bio-One, Kremsmünster, Germany). After overnight incubation, cells were treated with test compounds at four different concentrations ranging from 100 to 0.8 µM. Suspension cell lines HL-60, K-562, Z-138, MM.1S, and DND-41 were seeded at densities ranging from 3000 to 10,000 cells per well in 384-well, black-walled, clear-bottomed tissue culture plates containing test compounds at the same four concentrations. The plates were incubated and monitored at 37 °C for 72 h in an IncuCyte (Essen BioScience Inc., Ann Arbor, MI, USA) for real-time imaging. Images were taken every 3 h, with one field image per well under 10× magnification. All compounds were tested with duplicate data points and averaged. […]

[2] = system: Z-138 (non-Hodgkin lymphoma); assay: Antiproliferative screening (cytostatic activity); assay type: cell-based; conditions: Homo sapiens, Z-138; 72 h, IncuCyte imaging; read-out: IC50 Z-138
Protocol: (§1) All human tumor cell lines were acquired from the American Type Culture Collection (ATCC, Manassas, VA, USA), except for the DND-41 cell line which was purchased from the Deutsche Sammlung von Mikroorganismen und Zellkulturen (DSMZ Leibniz-Institut, Braunschweig, Germany) and the Hap1 cell line which was purchased from Horizon Discovery (Waterbeach, UK). […] All media were supplemented with 10% FBS (HyClone, GE Healthcare Life Sciences, USA). […] After overnight incubation, cells were treated with test compounds at four different concentrations ranging from 100 to 0.8 µM. […] Images were taken every 3 h, with one field image per well under 10× magnification. All compounds were tested with duplicate data points and averaged.

MM.1S (multiple myeloma) = assay: Antiproliferative screening (cytostatic activity); assay type: cell-based; conditions: Homo sapiens, MM1.S; 72 h, IncuCyte imaging; read-out: IC50 MM.1S
Protocol: as §1

[3] = system: HCT-116 (colorectal carcinoma); assay: Antiproliferative screening (cytostatic activity); assay type: cell-based; conditions: Homo sapiens, HCT-116; 72 h, IncuCyte imaging; read-out: IC50 HCT-116
Protocol: as §1

[4] = system: K-562 (chronic myeloid leukemia); assay: Antiproliferative screening (cytostatic activity); assay type: cell-based; conditions: Homo sapiens, K562; 72 h, IncuCyte imaging; read-out: IC50 K-562
Protocol: as §1

[5] = system: NCI-H460 (lung carcinoma); assay: Antiproliferative screening (cytostatic activity); assay type: cell-based; conditions: Homo sapiens, NCI-H460; 72 h, IncuCyte imaging; read-out: IC50 NCI-H460
Protocol: as §1

[6] = system: Capan-1 (pancreatic adenocarcinoma); assay: Antiproliferative screening (cytostatic activity); assay type: cell-based; conditions: Homo sapiens, CAPAN-1; 72 h, IncuCyte imaging; read-out: IC50 Capan-1
Protocol: as §1

[7] = system: Mycobacterium marinum CAMP 5644; assay: Antimycobacterial susceptibility assay (MIC determination); assay type: cell-based; conditions: CAMP5644, 504 h
Protocol: The broth dilution micro-method in Middlebrook 7H9 medium (Difco, Lawrence, KS, USA) supplemented with ADC Enrichment (Becton, Dickinson and Comp.) was used to determine MIC as previously described. […] Bacterial inocula were prepared by transferring colonies from culture to sterile water. The cell density was adjusted to 0.5 McFarland units using a densitometer (Densi-La-Meter, LIAP, Riga, Latvia). The final inoculum was made by 1:1000 dilution of the suspension with sterile water. Drug-free controls, sterility controls and controls consisted of medium and DMSO (Sigma-Aldrich, St. Louis, MO, USA) alone were included. […] Ciprofloxacin (CIP), rifampicin (RIF) and isoniazid (INH) (Sigma-Aldrich, St. Louis, MO, USA) were used as the standards.

Yellow Fever Virus = assay: microbe, parasite or virus in culture; assay type: cell-based; conditions: Vero
in vitro = conditions: African green monkey
Coxsackie Virus B4 = assay: Antiviral activity in Vero cell cultures; assay type: cell-based; conditions: Enterovirus B, B4, Vero cells
[8] = system: Enterococcus faecalis ATCC 29212; assay: Antimicrobial susceptibility assay in vitro (MIC determination); assay type: cell-based
[9] = system: Streptococcus pneumonia MFBF 10373; assay: Minimum biofilm eradication assay; assay type: cell-based, Streptococcus pneumoniae
Protocol: MBECs of fumardiamides 4a–f and succindiamides 5a–f were determined as follows. Each well (96-well plate) was filled with 100 µl of bacterial (10^7 CFU/mL) or yeast (5 × 10^6 CFU/mL) suspension. When the inhibition of yeast biofilm formation was tested, the wells were pre-treated with fetal bovine serum (FBS) (250 µl per well). Negative controls contained broth only. Positive controls were performed using standard antimicrobial drugs gentamycin (Gen) and Amph, respectively. […] Following incubation period, each well was aspirated, washed three times and vigorously shaken to remove all non-adherent bacteria/yeast. The remaining attached cells were fixed with methanol (15 min) and the plates were left to dry overnight. Formed biofilm was stained with crystal violet (1%, 5 min). Excess stain was rinsed by placing the plate under running tap water and the plates were left to dry. Adherent cells were solubilized using ethanol. The absorbance was read at 570 nm. The MBEC value represents the lowest dilution of a compound at which bacteria fail to grow.

[10] = Mycobacterium marinum CAMP 5644, 21 days, 28 °C, read-out: MIC
[11] = read-out: EC50 Yellow Fever Virus, MTS
[12] = MTS, read-out: EC50 Coxsackie Virus B4, MTS
[13] = Enterococcus faecalis, ATCC29212, 24 h
[14] = ATCC29212, Enterococcus faecalis ATCC 29212, broth dilution, 24 h, 37 °C, read-out: MIC
[15] = read-out: EC50 Yellow Fever Virus, Visual CPE Score
[16] = visual CPE score, read-out: EC50 Coxsackie Virus B4, Visual CPE Score

COc1cc(NC(C)CCCNC(=O)/C=C/C(=O)Nc2cccc(F)c2)c2ncccc2c1 (stereo not shown) [Compound 4a, (2E)-N-(3-Fluorophenyl)-N′-{4-[(6-methoxyquinolin-8-yl)amino]pentyl}but-2-enediamide]
IC50 ([1]; Homo sapiens, DND41, 72 h): 6.7 µM | IC50 [2]: 8.4 µM | IC50 (MM.1S (multiple myeloma)): 13 µM | IC50 [3]: 22.3 µM | IC50 [4]: 31.2 µM | IC50 [5]: 15.5 µM | IC50 [6]: 16.9 µM | MIC [7, 10]: > 256 µg/mL | EC50 (Yellow Fever Virus; [11]): > 50 µM | CC50 (in vitro): 46.9 µg/mL (≈ 104 µM) | EC50 (Coxsackie Virus B4; [12]): > 50 µM | MIC [8, 13]: 128 µg/mL (≈ 284 µM) | MBEC [9]: 12.5 µg/mL

COc1cc(NC(C)CCCNC(=O)/C=C/C(=O)Nc2ccc(F)cc2)c2ncccc2c1 (stereo not shown) [Compound 4b, (2E)-N-(4-Fluorophenyl)-N′-{4-[(6-methoxyquinolin-8-yl)amino]pentyl}but-2-enediamide]
IC50 ([1]; Homo sapiens, DND41, 72 h): > 100 µM | IC50 [2]: > 100 µM | IC50 (MM.1S (multiple myeloma)): > 100 µM | IC50 [3]: > 100 µM | IC50 [4]: 70.5 µM | IC50 [5]: 29.1 µM | IC50 [6]: 50.5 µM | MIC [7, 10]: 64 µg/mL (≈ 142 µM) | EC50 (Yellow Fever Virus; [11]): > 50 µM | CC50 (in vitro): > 50 µg/mL | EC50 (Coxsackie Virus B4; [12]): > 50 µM | MIC [8, 14]: 64 µg/mL (≈ 142 µM) | MBEC [9]: 25 µg/mL

COc1cc(NC(C)CCCNC(=O)/C=C/C(=O)Nc2cccc(Cl)c2)c2ncccc2c1 (stereo not shown) [Compound 4c, (2E)-N-(3-Chlorophenyl)-N′-{4-[(6-methoxyquinolin-8-yl)amino]pentyl}but-2-enediamide]
IC50 ([1]; Homo sapiens, DND41, 72 h): 8.4 µM | IC50 [2]: 46.5 µM | IC50 (MM.1S (multiple myeloma)): > 100 µM | IC50 [3]: 73 µM | IC50 [4]: > 100 µM | IC50 [5]: 43.7 µM | IC50 [6]: 69.9 µM | MIC ([7]; Mycobacterium marinum): 128 µg/mL (≈ 274 µM) | EC50 (Yellow Fever Virus; [11]): > 50 µM | EC50 (Yellow Fever Virus; [15]): > 50 µM | CC50 (in vitro): > 50 µg/mL | EC50 (Coxsackie Virus B4; [12]): > 50 µM | EC50 (Coxsackie Virus B4; [16]): > 50 µM | MIC [8, 14]: 256 µg/mL (≈ 548 µM) | MBEC [9]: 100 µg/mL

COc1cc(NC(C)CCCNC(=O)/C=C/C(=O)Nc2ccc(Cl)cc2)c2ncccc2c1 (stereo not shown) [Compound 4d, (2E)-N-(4-Chlorophenyl)-N′-{4-[(6-methoxyquinolin-8-yl)amino]pentyl}but-2-enediamide]
IC50 ([1]; Homo sapiens, DND41, 72 h): > 100 µM | IC50 [2]: > 100 µM | IC50 (MM.1S (multiple myeloma)): > 100 µM | IC50 [3]: > 100 µM | IC50 [4]: > 100 µM | IC50 [5]: > 100 µM | IC50 [6]: 91.8 µM | MIC [7, 10]: 64 µg/mL (≈ 137 µM) | EC50 (Yellow Fever Virus; [11]): > 50 µM | CC50 (in vitro): > 50 µg/mL | EC50 (Coxsackie Virus B4; [12]): > 50 µM | MIC [8, 14]: 64 µg/mL (≈ 137 µM) | MBEC [9]: 50 µg/mL

COc1cc(NC(C)CCCNC(=O)/C=C/C(=O)Nc2cccc(C(F)(F)F)c2)c2ncccc2c1 (stereo not shown) [Compound 4e, (2E)-N′-{4-[(6-Methoxyquinolin-8-yl)amino]pentyl}-N-[3-(trifluoromethyl)phenyl]but-2-enediamide]
IC50 ([1]; Homo sapiens, DND41, 72 h): 8.9 µM | IC50 [2]: 68.4 µM | IC50 (MM.1S (multiple myeloma)): > 100 µM | IC50 [3]: > 100 µM | IC50 [4]: 71.2 µM | IC50 [5]: 34.2 µM | IC50 [6]: 56.5 µM | MIC [7, 10]: 256 µg/mL (≈ 511 µM) | EC50 (Yellow Fever Virus; [11]): > 50 µM | EC50 (Yellow Fever Virus; [15]): > 50 µM | CC50 (in vitro): > 50 µg/mL | EC50 (Coxsackie Virus B4; [12]): 3.1 µM | EC50 (Coxsackie Virus B4; [16]): 2.7 µM | MIC [8, 13]: 128 µg/mL (≈ 256 µM) | MBEC [9]: 50 µg/mL

COc1cc(NC(C)CCCNC(=O)/C=C/C(=O)Nc2ccc(C(F)(F)F)cc2)c2ncccc2c1 (stereo not shown) [Compound 4f, (2E)-N′-{4-[(6-Methoxyquinolin-8-yl)amino]pentyl}-N-[4-(trifluoromethyl)phenyl]but-2-enediamide]
IC50 [1]: > 100 µM | IC50 [2]: > 100 µM | IC50 (MM.1S (multiple myeloma)): > 100 µM | IC50 [3]: > 100 µM | IC50 [4]: > 100 µM | IC50 [5]: > 100 µM | IC50 [6]: 79.4 µM | MIC [7, 10]: 64 µg/mL (≈ 128 µM) | EC50 (Yellow Fever Virus; [11]): > 50 µM | CC50 (in vitro): > 50 µg/mL | EC50 (Coxsackie Virus B4; [12]): > 50 µM | MIC [8, 14]: 64 µg/mL (≈ 128 µM) | MBEC [9]: 50 µg/mL
